Paper PMC7083565, “In vitro metabolism, reaction phenotyping, enzyme kinetics, CYP inhibition and induction potential of ataluren” (Pharmacology Research & Perspectives, 2020)

What was measured:
[1] = Incubation with 16 individual human liver microsomes (correlation analysis); assay type: in vitro ADME; details: 60 minutes, n = 2
Method: Ataluren at a concentration of 10 μmol/L, was incubated (n = 2) with 16 individual HLM at 0.5 mg protein concentration/mL for 0 and 60 minutes at 37°C. Enzyme activities for UGTs 1A1, 1A4, 1A6, 1A9, and 2B7 were precharacterized under optimized conditions by the vendor. Incubation mixtures and procedures were essentially the same as the above. The supernatant fractions were analyzed by LC‐MS/MS to quantify the formation of ataluren‐O‐1β‐acyl glucuronide and the loss of ataluren, and the enzyme activities were correlated with precharacterized UGT enzyme activities. Detailed LC‐MS/MS conditions are summarized in LC‐MS/MS Analysis section. […] The ataluren acyl glucuronide formation rate after 60 minutes incubation was calculated using the amount of metabolite formed (pmol) divided by the protein amount in the incubation sample ([…]) and the incubation time (60 minutes). […]
Quantification of ataluren loss and ataluren‐O‐1β‐acyl glucuronide formation was carried out with an LC‐MS/MS system, which consisted of two Shimadzu LC‐10ADvp pumps, a SPD10‐AVP UV/Vis detector, a Shimadzu SILHTA autosampler, a Shimadzu DGU‐14A degasser, and a Sciex API 4000 QTRAP mass spectrometer equipped with a Turbo Ionspray ionization source that operated in positive ionization mode. […]

CYP2A6 = assay: CYP induction in primary human hepatocytes: CYP2A6; assay type: in vitro ADME; details: Coumarin 7-hydroxylase, 48 hours, n=3
Method: Human hepatocytes isolated from three Caucasian males were transferred to 48‐well collagen‐coated plates at 0.14 × 10^6 cells/well in planting media for attachment. After attachment, planting media was replaced with sandwich media and the cells were incubated until clusters were established. […] The incubation solutions were aspirated and replaced with freshly prepared incubation solutions containing ataluren for an additional 24 hours. […] The incubation solutions were then aspirated and 150 µL of K‐H buffer containing CYP substrates were added. The hepatocytes were incubated for 30 minutes for CYP2C8 (10 µmol/L amodiaquine), 1 hour for CYP3A4 (125 µmol/L testosterone), and 4 hours for CYPs 1A2 (100 µmol/L phenacetin), 2A6 (100 µmol/L coumarin), 2B6 (150 µmol/L bupropion), 2C9 (50 µmol/L tolbutamide), 2C19 (100 µmol/L S‐mephenytoin), and 2E1 (300 µmol/L chlorzoxazone) activity assays. The reactions were stopped by the addition of 0.15 mL of ice‐cold methanol except that coumarin‐treated cells were incubated with β‐glucuronidase and aryl sulfatase for additional 1 hour to free 7‐hydroxycoumarin before the addition of 0.2 mL of ice‐cold methanol. Metabolite formation in incubations with test compounds and control inhibitors was assessed with validated LC‐MS/MS methods for each of the reaction products as described in Table S2. Enzymatic activity for each CYP was calculated using the absolute amount of metabolite formed (pmol) divided by hepatocytes in the incubation (million cells) and the incubation time (minute). The relative fold induction in enzymatic activity was calculated by comparing the rate of metabolite formation for treatment groups to that of the solvent control group (reported as vehicle control%) or positive control group (reported as positive control%).

CYP1A2 = assay: CYP induction in primary human hepatocytes: CYP1A2; details: Phenacetin O-deethylase, 48 hours, n=3
CYP3A4/5 = assay: CYP inhibition in pooled human liver microsomes: CYP3A4/5; assay type: in vitro ADME
Method: The final concentration of each probe substrate was near the experimentally determined Km value for the indicated enzyme. Ataluren or prototypical CYP inhibitors (positive controls) was incubated (n = 3) with probe substrates and HLM in 100 mmol/L phosphate buffer (pH 7.4) in a total volume of approximately 0.25 mL, and the reactions were initiated by the addition of 1 mmol/L NADPH at 37°C. The reactions were carried out using previously established conditions to ensure linearity with respect to protein concentration and incubation time (Table S1). Incubations were stopped with the addition of ice‐cold acetonitrile. Metabolite formation in incubations with test compound and control inhibitors was assessed with LC‐MS/MS methods for each of the reaction products as described in Table S2. […] After 7 minutes incubation at 37°C, the reaction was stopped by the addition of ice‐cold acetonitrile, followed by membrane plate filtration. The filtrates were used for LC‐MS/MS analysis. Enzyme activity remaining at each nonzero ataluren concentration after incubation was normalized against control sample (zero ataluren concentration, enzyme activity = 100%), and the % remaining enzyme activity values were used for IC50 calculation. IC50 values were determined by nonlinear regression with GraphPad Prism 5 using the following four‐parameter sigmoidal‐logistic IC50 equation: Fit=background+range-background/[1+I/IC50^slope]
Where, I is the inhibitor concentration, and background was set to 0 and range to 100, as percent of control values are utilized. K i was determined by nonlinear regression with GraphPad Prism 5 using best fit model.

For O=C(O)c1cccc(-c2noc(-c3ccccc3F)n2)c1 [ataluren, Ataluren], which “Rate, Loss of ataluren” value ([1]; individual HLM sample H0273, 10 μmol/L) is on record?
The value was 111 pmol/mg/min.

What about the “Rate, Loss of ataluren” value ([1]; individual HLM sample H0295, 10 μmol/L) of the same molecule?
Its value is 134 pmol/mg/min.

And the “Vehicle control %, Mean” value (CYP2A6; ataluren 4 µM)?
Its value is 100%.

And the “Vehicle control %, Mean” value (CYP2A6; ataluren 40 µM)?
The value was 111%.

What about the “Vehicle control %, Mean” value (CYP2A6; ataluren 400 µM) of the same molecule?
The value was 118%.

What about the “Positive control %, Mean” value (CYP1A2; ataluren 4 µM) of the same molecule?
The value was 1.32%.

What about the “Positive control %, Mean” value (CYP1A2; ataluren 40 µM) of the same molecule?
Its value is 1.24%.

What about the “Vehicle control %, Mean” value (CYP1A2; ataluren 40 µM) of the same molecule?
The value was 116%.

And the “Positive control %, Mean” value (CYP1A2; ataluren 400 µM)?
Its value is 0.087%.

And the “Vehicle control %, Mean” value (CYP1A2; ataluren 400 µM)?
The value was 100%.

What about the IC50 (CYP3A4/5; pH 7.4, CYP3A4/5, HLM, estimated, concentrations up to 400 μmol/L, substrate not stated) of the same molecule?
Its IC50 is over 400 µM.

And the IC50 (CYP3A4/5; pH 7.4, probe midazolam (1′-hydroxylation), Midazolam 1′-hydroxylase, pooled HLM, n=3)?
The IC50 was over 400 µM.

And the IC50 (CYP3A4/5; pH 7.4, probe testosterone (6β-hydroxylation), Testosterone 6β-hydroxylase, pooled HLM, n=3)?
Its IC50 is over 400 µM.
